Measurements published in patent publication EP1142587A1 (priority 1998, dated 2000).

Key:
[1] = target: T1, dopamine D2 receptor (Rattus norvegicus, UniProt P61169); experiment: biochemical; format: binding
T1 construct: A membrane fraction obtained from rat corpus striatum was prepared as a membrane fraction of a dopamine D2 receptor; from tissue; host or cells: rat corpus striatum membrane fraction

[2] = test system: mouse; experiment: Anti-dopamine action against apomorphine-induced climbing behavior; format: in vivo; conditions: for Wall climbing behavior: apomorphine (2mg/kg, s.c.) + test substance; for ED50: sc, apomorphine 2mg/kg s.c. 10 minutes after test drug, climbing measured from 20 minutes after apomorphine for 1 minute, read-out: ED50 value regarding anti-dopamine action
Source text: The term "a compound having dopamine D2 receptor antagonist activity" is used herein to mean a compound showing a binding affinity in a D2 receptor membrane binding test, and also showing inhibiting effect to apomorphine-induced climbing behavior.
The administration of dopamine receptor agonists, apomorphine induces a continual climbing behavior in mice. A test for competitive action against this effect is generally used as a method for detecting the dopamine receptor antagonist. A mouse was put into a cylindrical wire gauze (10 cm diameter × 14cm height) and allowed to habituate itself with the circumstances for about 1 hour. Apomorphine (2mg/kg, s.c.) was administered to the mouse at 10 minutes after the administration of the test drug, and from 20 minutes after the administration of apomorphine, its climbing behavior (which means the period during which all four legs of the mouse have left from the ground) was measured for 1 minute. Furthermore, a sigmoid curve was determined from dose response by a method of least squares, and ED50 value was calculated.

[3] = test system: Mice; conditions: mouse, in vivo, ip
[4] = test system: Sprague-Dawley rats; conditions: rat, in vivo
[5] = test system: ddY male mice; experiment: animal or person; format: in vivo; conditions: Mus musculus, ip, 0.5 h, read-out: ED50 value regarding analgetic effect

T1 sequence (P61169 whole entry): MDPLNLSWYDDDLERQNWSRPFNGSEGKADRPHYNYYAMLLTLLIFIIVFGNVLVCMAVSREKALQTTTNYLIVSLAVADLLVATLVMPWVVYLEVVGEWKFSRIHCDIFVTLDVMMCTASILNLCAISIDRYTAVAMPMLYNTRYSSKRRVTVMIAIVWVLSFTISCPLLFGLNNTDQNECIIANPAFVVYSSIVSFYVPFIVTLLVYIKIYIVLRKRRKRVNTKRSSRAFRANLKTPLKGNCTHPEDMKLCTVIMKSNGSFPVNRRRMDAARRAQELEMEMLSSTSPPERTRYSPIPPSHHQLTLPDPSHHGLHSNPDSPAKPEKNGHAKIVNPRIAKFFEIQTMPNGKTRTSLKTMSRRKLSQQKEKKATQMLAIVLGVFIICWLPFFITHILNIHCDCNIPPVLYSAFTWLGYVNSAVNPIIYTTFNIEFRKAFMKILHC

Structure (SMILES): COc1ccc(CN2CCC3(CC2)C(=O)NCN3c2ccccc2)cc1 [Example 14, 1'-(4-methoxybenzyl)-spiroimidazolidine-4,4'-piperidine-3-phenyl-5-on]
- Ki [1]: 20 nM
- Wall climbing behavior [2]: inhibitory effect
- ED50 [2]: 2.22 mg/kg
- effect on locomotor activity [3]: no effect on locomotor activity
- position palatability (psychological dependence / aversive effect) [4]: neither psychological dependence nor aversive effects

Structure (SMILES): O=C1NCN(c2ccccc2)C12CCN(Cc1cccnc1)CC2 [Example 17, 1'-(3-pyridyl)methyl-spiroimidazolidine-4,4'-piperidine-3-phenyl-5-on]
- Ki [1]: 457 nM
- effect on locomotor activity [3]: no effect on locomotor activity

Structure (SMILES): O=C1OC2(CCN(Cc3ccccc3)CC2)c2ccccc21 [Reference example 15, 1'-benzyl-spiro[benzodihydrofuran-1(3H),4'-piperidine)-3-on, reference compound]
- Ki [1]: > 1000 nM

Structure (SMILES): O=C1NCN(c2ccccc2)C12CCN(Cc1ccc(Br)cc1)CC2 [Example 18, 1'-(4-bromobenzyl)-spiroimidazolidine-4,4'-piperidine-3-phenyl-5-on]
- Ki [1]: 5.7 nM
- Wall climbing behavior [2]: inhibitory effect
- ED50 [2]: 1.05 mg/kg
- effect on locomotor activity [3]: no effect on locomotor activity

Structure (SMILES): CN1CC[C@]23c4c5ccc(O)c4O[C@H]2[C@@H](O)C=C[C@H]3[C@H]1C5 [Morphine, reference compound]
- ED50 [5]: 13.7 mg/kg
- effect on locomotor activity [3]: strong locomotor activity promoting effect
- position palatability (psychological dependence / aversive effect) [4]: strong rewarding effect

Structure (SMILES): Cc1ccc(CN2CCC3(CC2)C(=O)NCN3c2ccccc2)cc1 [Example 23, 1'-(4-methylbenzyl)-spiroimidazolidine-4,4'-piperidine-3-phenyl-5-on]
- Ki [1]: 52 nM
- Wall climbing behavior [2]: inhibitory effect
- ED50 [2]: 9.5 mg/kg
- effect on locomotor activity [3]: no effect on locomotor activity

Structure (SMILES): Cc1ccc(CN2CCC3(CC2)C(=O)NCN3c2ccccc2)cn1 [Example 16, 1'-(6-methyl-3-pyridyl)methyl-spiroimidazolidine-4,4'-piperidine-3-phenyl-5-on]
- Ki [1]: 17 nM
- Wall climbing behavior [2]: inhibitory effect
- ED50 [2]: 11.9 mg/kg
- effect on locomotor activity [3]: no effect on locomotor activity
- position palatability (psychological dependence / aversive effect) [4]: neither psychological dependence nor aversive effects

Structure (SMILES): O=C1NCN(c2ccccc2)C12CCN(Cc1ccc(Cl)nc1)CC2 [Example 15, 1'-(6-chloro-3-pyridyl)methyl-spiroimidazolidine-4,4'-piperidine-3-phenyl-5-on]
- Ki [1]: 3.6 nM
- Wall climbing behavior [2]: inhibitory effect
- ED50 [2]: 1.22 mg/kg
- effect on locomotor activity [3]: no effect on locomotor activity

Structure (SMILES): N=C1OC2(CCN(Cc3ccc(Cl)nc3)CC2)c2c1ccc1ccccc21 [Example 1, 1'-(6-chloro-3-pyridyl)methyl(benzo[g]1,3-dihydroisobenzofuran-1-spiro-4'-piperidine)-3-imine]
- Ki [1]: 230 nM

Structure (SMILES): O=C1OC2(CCN(Cc3ccc(Cl)nc3)CC2)c2cc3ccccc3cc21 [Example 3, 1'-(6-chloro-3-pyridyl)methyl(benzo[f]1,3-dihydroisobenzofuran-1-spiro-4'-piperidine)-3-on]
- Ki [1]: 1590 nM

Structure (SMILES): O=C1OC2(CCN(Cc3ccccc3)CC2)c2c1ccc1ccccc21 [Example 11, 1'-benzyl(benzo[g]1,3-dihydroisobenzofuran-1-spiro-4'-piperidine)-3-on]
- Ki [1]: 177 nM

Structure (SMILES): O=C1OC2(CCN(Cc3ccc(Cl)nc3)CC2)c2c1ccc1ccccc21 [Example 2, 1'-(6-chloro-3-pyridyl)methyl(benzo[g]1,3-dihydroisobenzofuran-1-spiro-4'-piperidine)-3-on]
- Ki [1]: 532 nM
